Here are results for 33 compounds from PMC13576449, “Small-Molecule Activators of PRMT1: Discovery, SAR Analyses, and Proapoptotic Effects in Pancreatic Cancer Cells” (Journal of Medicinal Chemistry, 2026).

T2 sequence (Q63009 whole entry): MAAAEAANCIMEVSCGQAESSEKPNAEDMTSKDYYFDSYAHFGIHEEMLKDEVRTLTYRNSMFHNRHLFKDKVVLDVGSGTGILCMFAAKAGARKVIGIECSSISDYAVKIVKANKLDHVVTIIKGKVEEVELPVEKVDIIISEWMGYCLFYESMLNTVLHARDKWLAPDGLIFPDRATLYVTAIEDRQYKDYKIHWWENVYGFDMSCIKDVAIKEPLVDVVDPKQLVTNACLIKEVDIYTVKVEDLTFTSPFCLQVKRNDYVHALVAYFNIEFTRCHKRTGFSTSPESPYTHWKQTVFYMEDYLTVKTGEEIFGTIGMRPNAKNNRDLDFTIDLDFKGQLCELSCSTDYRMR

For the first assay, the target named is T1, FLAG-tagged PRMT6 (Homo sapiens, UniProt Q96LA8).
T1 construct: The complete ORFs of human PRMT3 and PRMT6 were inserted; made in house; host or cells: Sf9 insect cells (baculovirus)
T1 sequence (Q96LA8 whole entry): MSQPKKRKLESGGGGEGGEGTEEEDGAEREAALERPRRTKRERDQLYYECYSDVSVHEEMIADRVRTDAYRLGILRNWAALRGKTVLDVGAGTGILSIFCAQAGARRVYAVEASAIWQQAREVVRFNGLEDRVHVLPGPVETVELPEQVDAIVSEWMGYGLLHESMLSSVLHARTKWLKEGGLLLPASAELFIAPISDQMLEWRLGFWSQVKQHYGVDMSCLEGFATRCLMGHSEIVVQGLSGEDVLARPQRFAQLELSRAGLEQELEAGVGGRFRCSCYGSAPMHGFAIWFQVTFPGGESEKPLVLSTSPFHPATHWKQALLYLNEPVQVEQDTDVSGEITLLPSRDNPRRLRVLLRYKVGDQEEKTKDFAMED
As to the kind of experiment: Fluorescence-based in vitro PRMT assay (F-PRMT assay), PRMT6. The conditions noted are these: Table S2; 100 µM compound, vs solvent control = 100%, n=3; racemates used. It counts as biochemical. From the text:
To evaluate the effects of the selected candidate molecules on the catalytic activity of type I enzymes, we employed a quantitative fluorescence-based in vitro PRMT activity (F-PRMT) assay using recombinant FLAG-tagged PRMT proteins expressed and affinity-purified from baculovirus-infected Sf9 cells (SI Figure S1, SI Figure S2A).
Human cell lines (PaTu8988T, PANC-1) were obtained from ATCC (American Type Culture Collection) and cultured in DMEM supplemented with 10% fetal calf serum (FCS, Gibco/BRL), 1% penicillin/streptomycin at 37 °C and 5% CO2. […] For PRMT1 inhibition, cells were treated with type I PRMT inhibitor MS023 hydrochloride (Biomol). For induction of genotoxic stress, cells were treated with gemcitabine (LC Laboratories). […] The following plasmids were used: pFASTBAC-FLAG-rat PRMT1, pFASTBAC-FLAG-mouse PRMT4, and pGEX-GAR. The complete ORFs of human PRMT3 and PRMT6 were inserted into the pFASTBAC HT-3xFLAG B vector via BamHI/HindIII and BamHI/XhoI sites, respectively.
For PRMT protein expression in insect cells, recombinant baculovirus (bacmid) was generated using the Bac-to-Bac baculovirus system (Invitrogen). Sf9 cells were transfected with bacmid DNA using X-tremeGENE HP DNA transfection reagent (Sigma-Aldrich) according to the manufacturer's instructions. After 3–5 days, supernatants were collected, filtered, and used to infect Sf9 cells to amplify the virus. After 2 rounds of virus amplification and estimation of the final P3 virus titer, the P3 virus (2–5 μL/10^6 cells) was applied for large-scale infection of 200 × 10^6 Sf9 cells in suspension culture at a density of 1 × 10^6 cells/mL. Cells were harvested 5–6 days post-infection by centrifugation at 500 g for 5 min at room temperature. Protein purification from baculovirus-infected Sf9 cells was performed as previously described. , Cells were lysed in BC buffer (20 mM HEPES pH 7.9, 250 mM NaCl, 10% (v/v) glycerin, 0.4 mM EDTA, 1 mM DTT) containing a protease inhibitor cocktail (Roche) by 3 freeze-thaw cycles. After centrifugation at 11,000 rpm (Sorval SS34 rotor) and 4 °C for 1 h, the supernatant (whole cell protein extract) was incubated with anti-FLAG M2 Affinity Gel (Cytiva) at 4 °C and under agitation for 4 h. Subsequently, beads were washed in BC buffer containing various NaCl concentrations (once in BC with 1 M NaCl, twice in BC with 500 mM NaCl, twice in BC with 250 mM NaCl and twice in BC with 100 mM NaCl). FLAG-tagged proteins were either maintained bead-bound as a 50% (v/v) slurry in BC buffer with 100 mM NaCl and stored at −80 °C or were eluted in the appropriate elution buffer (depending on the subsequent assay) containing 0.25 mg/mL 3xFLAG peptides (Sigma-Aldrich) at 4 °C for 30–45 min. To remove the FLAG-peptides from the eluate, dialysis was performed in elution buffer containing 10% (v/v) glycerol at 4 °C for 4–6 h using Slide-A-Lyzer Dialysis Devices (Thermo Fisher Scientific) according to the manufacturer’s recommendations.
In the first step, the fluorogenic substrate Nα-Benzoyl-L-arginine-7-amido-4-methylcoumarin (Bz-Arg-AMC, Sigma-Aldrich) undergoes methylation by PRMTs upon the addition of the cofactor SAM. In the second reaction step, trypsin cleaves the nonmethylated substrate, leading to the generation of the 7-amino-4-methylcoumarin product, which can be quantified by subsequent fluorescence measurement (excitation: 355 nm, emission: 460 nm). The first reaction was conducted with bead-bound PRMTs at a total volume of 100 μL. Each condition was performed as a technical triplicate to determine the mean and the standard deviation. […] For the negative controls, SAM was substituted with assay buffer. The incubation was continued at 37 °C and under agitation (1,000 rpm) for a duration of 2 h.
Consider `COc1cc(CN2CCC(CN)C2)cc(Cl)c1OC` (stereo not shown) [Compound K002JS010], for which the “Experimental result (PRMT6)” value is reported as “n.e. (did not significantly affect the catalytic activity of the intended PRMT (less than ±6% change or not significant p-value), are marked with n.e. (no effect))”. Turning to `O=[N+]([O-])c1ccc(Sc2n[nH]c(Cc3ccccc3)n2)nc1` [Compound K002JS015], the “Experimental result (PRMT6)” value is recorded as “n.e. (did not significantly affect the catalytic activity of the intended PRMT (less than ±6% change or not significant p-value), are marked with n.e. (no effect))”. The same measure, in the same setting: the value for `COc1cc(CNCCN(C)C)ccc1OCc1nc(C)no1` [Compound K002FT011] was “n.e. (did not significantly affect the catalytic activity of the intended PRMT (less than ±6% change or not significant p-value), are marked with n.e. (no effect))”; that for `CNCC1CCN(Cc2cc(F)ccc2C)CC1` [Compound K002FT009] was “n.e. (did not significantly affect the catalytic activity of the intended PRMT (less than ±6% change or not significant p-value), are marked with n.e. (no effect))”. Take `CC(C)N(CCCOCc1ccccc1)CC(=N)NO` [Compound K600JK007]: the “Experimental result (PRMT6)” value is reported as “n.e. (did not significantly affect the catalytic activity of the intended PRMT (less than ±6% change or not significant p-value), are marked with n.e. (no effect))”. With `Cc1cccc(-n2ncc3c(NCCN(C)C)ncnc32)c1` [Compound K002FT004], the “Experimental result (PRMT6)” value is “n.e. (did not significantly affect the catalytic activity of the intended PRMT (less than ±6% change or not significant p-value), are marked with n.e. (no effect))”. In the case of `CCN(CCCC(=O)Nc1cccc(C)c1)C1CNC1` [Compound K600JK005], the “Experimental result (PRMT6)” value is given as “n.e. (did not significantly affect the catalytic activity of the intended PRMT (less than ±6% change or not significant p-value), are marked with n.e. (no effect))”.

In the case of `Cc1nc(N)cc(NC[C@H]2CC(=O)N(c3ccccc3)C2)n1` (racemic) [Compound K002FT010], the “Experimental result (PRMT6)” value is “n.e. (did not significantly affect the catalytic activity of the intended PRMT (less than ±6% change or not significant p-value), are marked with n.e. (no effect))”.

Consider `CN(C)CC(=O)Nc1cnccc1N1CCOCC1` [Compound K002FT018], for which the “Experimental result (PRMT6)” value is “n.e. (did not significantly affect the catalytic activity of the intended PRMT (less than ±6% change or not significant p-value), are marked with n.e. (no effect))”. For the compound `COc1ccc(Cl)cc1NC(=O)[C@@H]1CCCN1` (racemic) [Compound K002JS001], the “Experimental result (PRMT6)” value is “n.e. (did not significantly affect the catalytic activity of the intended PRMT (less than ±6% change or not significant p-value), are marked with n.e. (no effect))”. On the same count and under the same terms, the value for `Nc1nccc(N2CC[C@@]3(CCCN(C4CCOCC4)C3=O)C2)n1` (racemic) [Compound K002JS009] was “n.e. (did not significantly affect the catalytic activity of the intended PRMT (less than ±6% change or not significant p-value), are marked with n.e. (no effect))”. Same read-out and setting: the value for `Cc1cc(NC(=O)CN(C)C)cc(N2CCN(C(C)C)CC2)c1` [Compound K002FT012] was “n.e. (did not significantly affect the catalytic activity of the intended PRMT (less than ±6% change or not significant p-value), are marked with n.e. (no effect))”; that for `CCNc1nc(C)cc(NCCNC(=O)Cc2ccc(F)cc2)n1` [Compound K002FT003] was “n.e. (did not significantly affect the catalytic activity of the intended PRMT (less than ±6% change or not significant p-value), are marked with n.e. (no effect))”; that for `CN[C@H](CO)c1cc(OC)ccc1Br` (racemic) [Compound K002FT016] was “n.e. (did not significantly affect the catalytic activity of the intended PRMT (less than ±6% change or not significant p-value), are marked with n.e. (no effect))”. Still for that read-out and setting: the value for `COc1cc(CNCCNCCO)cc(Cl)c1OC(C)C` [Compound K002FT001] was “n.e. (did not significantly affect the catalytic activity of the intended PRMT (less than ±6% change or not significant p-value), are marked with n.e. (no effect))”; that for `CCN(CC(=O)NCCc1cccc(Cl)c1)C1CNC1` [Compound K600JK006] was “n.e. (did not significantly affect the catalytic activity of the intended PRMT (less than ±6% change or not significant p-value), are marked with n.e. (no effect))”. In the case of `COCC1(CNCc2nnc([C@H]3C[C@H](N)C3)n2C2CC2)CC1` [Compound K002FT002], the “Experimental result (PRMT6)” value was “n.e. (did not significantly affect the catalytic activity of the intended PRMT (less than ±6% change or not significant p-value), are marked with n.e. (no effect))”.

The next assay addresses T2, FLAG-tagged PRMT1 (Rattus norvegicus, UniProt Q63009).
T2 construct: Full-length FLAG-tagged PRMT protein; made in house; host or cells: Sf9 insect cells (baculovirus)
As to the kind of experiment: Fluorescence-based in vitro PRMT assay (F-PRMT assay), PRMT1. The class given is biochemical. The settings on record: 100 μM compound.
As for `O=C1NC(=O)c2ccccc2/C1=C/Nc1ccccn1` [TR-030, (Z)-4-[(Pyridin-2-ylamino)methylene]isoquinoline-1,3(2H,4H)-dione], the “effect on PRMT1 activity (in words)” value was “no significant effect”. As for `O=C1NC(=O)c2ccccc2C1=CNc1ccccc1Cn1cncn1` [ICTR-042], the “effect on PRMT1 activity (in words)” value was “no significant or minimal inhibitory activity”. Regarding `CCN(CC)Cc1cccc(-c2ccc3[nH]c(=O)c4ccccc4c3c2)c1` [ICTR-096], the “effect on PRMT1 activity (in words)” value is given as “significantly increased PRMT1 activity”. Same read-out and setting: as for `CN(C)c1ccccc1CN/C=C1\C(=O)NC(=O)c2ccccc21` [ICTR-052], the entry is “no effect or a modest activating effect”; as for `O=C1NC(=O)c2ccccc2C1=CNCc1cccnc1` [TR-032], “activated PRMT1 in a significant manner, albeit to a considerably lesser extent than TR-07”. On the same count and under the same terms, as for `CN(C)c1ccccc1N/C=C1\C(=O)NC(=O)c2ccccc21` [ICTR-015], the entry is “no effect”. With `CCN(CC)c1ccccc1N/C=C1\C(=O)NC(=O)c2ccccc21` [ICTR-060], the “effect on PRMT1 activity (in words)” value was “no effect”.

Consider `CN(C)Cc1ccccc1CN/C=C1\C(=O)NC(=O)c2ccccc21` [ICTR-063], for which the “effect on PRMT1 activity (in words)” value was “reduced activating effect”. The same measure, in the same setting: as for `CCN(CC)Cc1ccccc1CN/C=C1\C(=O)NC(=O)c2ccccc21` [ICTR-119], the entry is “no significant effect”; as for `O=C1NC(=O)c2ccccc2C1=CNc1ccccc1Cn1cccc1` [ICTR-036], “no significant or minimal inhibitory activity”; as for `CN(C)Cc1ccccc1N/C=C1\C(=O)NC(=O)c2ccccc21` [TR-022], “equal”.

For `Nc1ccccc1N/C=C1\C(=O)NC(=O)c2ccccc21` [ICTR-019], the “effect on PRMT1 activity (in words)” value is “no effect”. Same read-out and setting: the value for `O=C1NC(=O)c2ccccc2C1=CNc1cccnc1` [TR-031] was “no significant effect”; that for `CCN(CC)Cc1ccccc1-c1ccc2[nH]c(=O)c3ccccc3c2c1` [ICTR-094] was “significantly lower activation of PRMT1 compared to TR-07”.

`O=C1NC(=O)c2ccccc2C1=CNc1cccc(CN2CCOCC2)c1` [TR-038]: the “effect on PRMT1 activity (in words)” value was “strong inhibitory effect”. Same read-out and setting: the value for `C[N+](C)(C)Cc1cccc(CN/C=C2\C(=O)NC(=O)c3ccccc32)c1.[I-]` [ICTR-108] was “no effect or a modest activating effect”.

The same assay, now with this note: 100 μM compound, increase over solvent-treated activity; read-out: enhancement (increase) of PRMT1 enzymatic activity.
Regarding `CCN(CC)Cc1cccc(-c2ccc3[nH]c(=O)c4ccccc4c3c2)c1` [ICTR-096], the activation at 100 µM was not below 60%.
